In article PMC6155662, “Trypanocidal Activity of Quinoxaline 1,4 Di-N-oxide Derivatives as Trypanothione Reductase Inhibitors” (Molecules : A Journal of Synthetic Chemistry and Natural …, 2017):
Read-outs that look alike come from different tables or passages of the source.

Columns and labels:
[1] = Cytotoxicity assay (Alamar Blue) on macrophages; assay type: cell-based, murine; settings: mouse, J774A.1 macrophages, mean and SD of triplicate
Description: The murine macrophage cell line J774.A1 was maintained in culture flasks with RPMI 1640 medium supplemented with 10% FBS, 1% MEM-NEAA medium (Gibco) and 100 U/mL antibiotic-antifungal mixture (Gibco). Cells were incubated at 37 °C with 5% CO2 and humidity. Trypsinized J774.A1 macrophages were washed and viability was assessed by the trypan blue dye (Sigma-Aldrich, Toluca, Edo de Mexico, Mexico) exclusion assay. In a 96-well microplate, 50,000 macrophages were seeded per well and a dose-response assay was performed. Compounds were evaluated using six-fold serial dilutions ranging from 100 µg/mL to 0.3 µg/mL of final concentration. Each compound was tested in triplicate. After 20 h incubation, Alamar Blue was added (10% v/v) and cells were incubated for an additional 4 h period. Results were obtained as previously described and CC50 was calculated. As a negative control of cytotoxicity, cells were incubated only in the presence of 0.1% DMSO [39, 40].

[2] = system: T. cruzi bloodstream trypomastigotes INC-5 strain; assay: microbe, parasite or virus in culture; assay type: cell-based; settings: for CC50: bloodstream trypomastigotes, 24 h at 4 °C (called IC50 in abstract), read-out: LC50 INC-5 Strain
Description: (§1) In this study, two strains of T. cruzi isolated in Mexico were used. T. cruzi NINOA strain (MHOM/MX/1994/NINOA) was obtained from a patient with acute Chagas disease and T. cruzi INC-5 (MHOM/MX/1994/INC5) was isolated from a patient in the chronic phase of the disease. Epimastigotes were cultured in vitro in liver infusion-tryptose (LIT) medium supplemented with 10% heat inactivated fetal bovine serum (FBS) (Gibco) and 100 U/mL penicillin-streptomycin (In vitro S.A.), and incubated at 27 °C. CD1 mice, aged 6–8 weeks, were infected with T. cruzi to obtain bloodstream trypomastigote samples. Animal experiments were performed according to Norma Oficial Mexicana (NOM-062-Z00-1999) published on 22 August, 2009.
(§2) CD1 female mice 6–8 weeks old were infected with T. cruzi bloodstream trypomastigotes of the INC-5 and NINOA strains. The course of infection continued for 4–6 weeks. At the peak of parasitemia blood was obtained by cardiac puncture using sodium heparin as an anticoagulant. The blood was adjusted to 1 × 10^6 bloodstream trypomastigotes/mL.
(§3) In each well of the 96-well plate, 195 μL of infected blood and 5 μL of quinoxaline 1,4-di-N-oxide derivatives or reference drug dilutions were seeded, with each well reaching a final volume of 200 µL. Each assay was performed in triplicate. Initially, all compounds were tested at 50 μg/mL. […] As a negative control of lysis, wells with untreated blood trypomastigotes were used, and as a positive control, wells with the reference drugs were used. The microplates were incubated at 4 °C for 24 h. Bloodstream trypomastigotes were quantified by the method of Brener-Pizzi, 5 μL of blood were placed on a slide and covered with a coverslip 13 × 13 mm. The mobile protozoa were counted in 15 fields at 40× magnification using an optical microscope. The percentage lysis was determined by comparing the remaining trypomastigotes against the negative control. LC50 was determined with the Probit statistical tool. The results were later converted to micromolar units.

[3] = system: T. cruzi bloodstream trypomastigotes NINOA strain; assay: microbe, parasite or virus in culture; assay type: cell-based; settings: Trypanosoma cruzi
Description: as §1, §2, §3

**Q.** For CC(C)OC(=O)c1ccc2c(c1)[n+]([O-])c(C(=O)C(C)C)c(C(F)(F)F)[n+]2[O-] [Compound T-085, Isopropyl 2-isobutyryl-3-trifluoromethylquinoxaline-7-carboxylate 1,4-di-N-oxide], which CC50 at 24 h [1] is on record?
**A.** Its CC50 at 24 h is 10.4 ± 0.8 µM.

**Q.** And the CC50 ([2]; Trypanosoma cruzi, 24 h)?
**A.** The CC50 was 73 µM.

**Q.** What about the killing at 50 µg/mL ([2]; Trypanosoma cruzi, 50 μg/mL, 24 h at 4 °C, infected mouse blood, read-out: % Lysis at 50 μg/mL INC-5 Strain) of the same compound?
**A.** Its killing at 50 µg/mL is 76.2 ± 1.2%.

**Q.** And the CC50 [2]?
**A.** Its CC50 is 73.1 ± 12.4 µM.

**Q.** And the LC50 ([3]; 24 h)?
**A.** The LC50 was 59.9 ± 7.9 µM.

**Q.** What about the killing at 50 µg/mL ([3]; 50 μg/mL, 24 h at 4 °C, infected mouse blood, read-out: % Lysis at 50 μg/mL NINOA Strain) of the same compound?
**A.** Its killing at 50 µg/mL is 74.2 ± 6.4%.
